Assays:
[1] = system: MMP-1 production in SW1353 human chondrosarcoma cells; test: glucocorticoid inhibition of IL-1 induced MMP-1 production in human chondrosarcoma cells; format: cell-based; details: 20 ng/ml IL-1 beta, 72 hours after IL-1 addition, ELISA, read-out: IC50, inhibition of MMP1 expression
Experimental: (§1) This assay, the glucocorticoid inhibition of IL-1 (Interleukin-1) induced MMP-1 (Matrix Metalloproteinase-1) and IL-8 (Interleukin-8) production in human chondrosarcoma cells, is conducted as follows: SW1353 human chondrosarcoma cells (obtained from ATCC) from passage 12 through passage 19 are used in a 96 well format assay. Cells are plated at confluence into 96 well plates in DMEM (Dulbecco's Modified Eagle Medium) with 10% fetal bovine serum and incubated at 37° C., 5% CO2. After 24 hours, serum containing media is removed and replaced with 200 ul/well DMEM containing 1 mg/L insulin, 2 g/L lactalbumin hydrosylate, and 0.5 mg/L ascorbic acid and returned to incubation at 37° C., 5% CO2. […] IL-8 production is assessed using the Quantikine human IL-8 ELISA kit from R & D Systems (D8050) on samples diluted 60-fold in RD5P Calibrator Diluent, following the manufacturer's protocol. The percent of the average IL-1 control is determined for the average of each of the triplicate samples following subtraction of the average signal from untreated cells. IC50's are determined from log linear plots of the percent of control versus the concentration of inhibitor. […] MMP-1 production is assessed via the Bio-Trak MMP-1 ELISA kit from Amersham (RPN2610) on 100 ul of neat sample following the manufacturer's protocol. […]

[2] = system: IL-8 production in SW1353 human chondrosarcoma cells; test: glucocorticoid inhibition of IL-1 induced IL-8 production in human chondrosarcoma cells; format: cell-based; details: 20 ng/ml IL-1 beta, 24 hours after IL-1 addition, ELISA, read-out: IC50, inhibition of IL-8 expression
Experimental: as §1

For C[C@@H]1C[C@H]2[C@@H]3CCC4=CC(=O)C=C[C@]4(C)[C@@]3(F)[C@@H](O)C[C@]2(C)[C@@]1(O)C(=O)CO [Dexamethasone, (11β, 16α)-9-fluoro-11,17,21-trihydroxy-16-methylpregna-1,4-diene-3,20-dione], the IC50 [1] was 5 nM and the IC50 [2] was 5 nM.

Reference: US6852719B2, “Glucocorticoid receptor modulators” (Pfizer Inc., priority 2000, dated 2005)
